What was measured:
Format in all cases: in vivo
[1] = test system: rat model of inflammatory pain; assay: Inflammatory mechanical hyperalgesia (FCA, Randal-Sellito paw withdrawal threshold); details: for maximal reversal of mechanical hyperalgesia: ipsilateral paw, 24 h after FCA
Method: Mechanical hyperalgesia was examined in a rat model of inflammatory pain. Paw withdrawal thresholds to an increasing pressure stimulus were measured by the Randal-Sellito technique using an analgesymeter (Ugo Basile, Milan), in naïve animals prior to an intraplantar injection of complete Freund's complete adjuvant (FCA) into the left hind paw. 24 h later paw withdrawal thresholds were measured again prior to (predose) and then from 10 min to 6 h following drug or vehicle administration. Reversal of hyperalgesia in the ipsilateral paw was calculated according to the formula: [formula]
(§1) All experiments were carried out using groups of 6 animals. Stock concentrations of drugs were dissolved in distilled water and subsequent dilutions were made in 0.9% saline for subcutaneous administration in a volume of 4 mlkg^−1. All drugs were made up in plastic vials and kept in the dark.
(§2) Statistical analysis was carried out on withdrawal threshold readings (g) using ANOVA with repeated measures followed by Tukey's HSD test. Efficacy refers to the maximal reversal of hyperalgesia observed at the doses used.

[2] = test system: rat model of neuropathic pain; assay: Neuropathic mechanical hyperalgesia (partial ligation of the left sciatic nerve)
Method: Mechanical hyperalgesia was examined in a rat model of neuropathic pain induced by partial ligation of the left sciatic nerve. Approximately 14 days following surgery mechanical withdrawal thresholds of both the ligated (ipsilateral) and non-ligated (contralateral) paw were measured prior to (predose) and then from 10 min to 6 h following drug or vehicle administration. Reversal of hyperalgesia at each time point was calculated according to the formula: [formula]
as §1, §2

[3] = test system: rat model of bone cancer pain; assay: Rat model of bone cancer pain (intra-tibial MRMZ1 mammary gland carcinoma cells)
Method: Adult female rats were given intra-tibial injections of MRMZ1 rat mammary gland carcinoma cells (3 μl, 10^7 cells/ml). These animals gradually developed mechanical hyperalgesia, mechanical allodynia (skin sensitivity to non-noxious stimuli) and hind limb sparing, beginning on day 12-14 following cell injection.

[4] = 10 and 30 μg/kg s.c. 3 times a week from the day of cell injection

## O=P(O)(O)C(O)(Cn1ccnc1)P(=O)(O)O [Zoledronate, 1-hydroxy-2-(imidazol-1-yl)ethane-1,1-diphosphonic acid]
[1]; 0.003-0.1 mgkg^−1 s.c.
  time to maximal reversal of mechanical hyperalgesia: ≤ 30 min
  maximal reversal of mechanical hyperalgesia: 100%
[1]; 0.003-0.1 mgkg^−1 s.c., 3 h after administration
  activity 3 h following administration (duration): no significant activity
[1]; 0.003-0.1 mgkg^−1 s.c., listed as zoledronic acid
  maximal reversal of mechanical hyperalgesia: about 100%
[1]; highest dose of 0.003-0.1 mgkg^−1 s.c., contralateral paw
  contralateral activity: Some contralateral activity
[2]; 0.003-0.1 mgkg^−1 s.c.
  time to maximal reversal of mechanical hyperalgesia: ≤ 30 min
[2]; 0.003-0.1 mgkg^−1 s.c., about 14 days after surgery
  reversal of mechanical hyperalgesia (maximal): 40%
[2]; highest dose of 0.003-0.1 mgkg^−1 s.c.
  contralateral paw withdrawal thresholds: significant reduction
[3]; [4]
  hind limb sparing: profound inhibition
  mechanical allodynia: profound inhibition
[3]; higher dose (30 μg/kg s.c. 3 times a week), 19 days following intra-tibial cell injection
  development of hind limb sparing over 19 days: did not develop any sign of hind limb sparing
[3]; single injection 100 μg/kg s.c. on day 19
  acute effect of a single injection: no acute effect

## O=P(O)(O)C(Cl)(Cl)P(=O)(O)O [Clodronate, 1,1-dichloromethane-1,1-diphosphonic acid]
[1]; 0.3-10 mgkg^−1 s.c.
  reversing inflammatory mechanical hyperalgesia: ineffective
[1]; highest dose tested of 0.3-10 mgkg^−1 s.c.
  paw withdrawal thresholds: slight reductions
[2]; 0.3-10 mgkg^−1 s.c.
  activity in the model of neuropathic pain (reversal of hyperalgesia): inactive
  contralateral paw withdrawal thresholds: some reductions

## CN1CC[C@]23c4c5ccc(O)c4O[C@H]2[C@@H](O)C=C[C@H]3[C@H]1C5 [morphine]
[3]; acute treatment, 1-10 mg/kg s.c.
  mechanical allodynia: dose dependent reduction
[3]; acute treatment, highest dose only (of 1-10 mg/kg s.c.)
  hind limb sparing: significant reduction

## NCCC(O)(P(=O)(O)O)P(=O)(O)O [Pamidronate, 3-amino-1-hydroxypropane-1,1-diphosphonic acid]
[1]; 0.03-1 mgkg^−1 s.c.
  reversing inflammatory mechanical hyperalgesia: ineffective
[1]; highest dose tested of 0.03-1 mgkg^−1 s.c.
  paw withdrawal thresholds: slight reductions
[2]; 0.03-1 mgkg^−1 s.c.
  contralateral paw withdrawal thresholds: some reductions
  maximal reversal of hyperalgesia: 20%

Reference: patent publication US20040063670A1, “Use of bisphosphonates for pain treatment” (priority 2000, published 2004)
